Experimental data reported in ChEMBL document CHEMBL1201862, “PubChem BioAssay data set” (2004).
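How tested: cells in 96-well plates exposed to compound for 48 hours at five concentrations. Abbreviation: GI50, concentration required for 50% inhibition of growth.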 Calls of active or inactive are those of the source. Rule as the data show it: active = GI50 up to about 1.1 µM and inactive = higher.

How the values were obtained:
Assay in all cases: DTP human tumour cell line panel, 48 h
[1] = tested on: IGROV-1
[2] = tested on: DU-145
[3] = tested on: M14
[4] = tested on: HT-29
[5] = tested on: OVCAR-3
[6] = tested on: NCI-H23
[7] = tested on: HCC 2998
[8] = tested on: PC-3
[9] = tested on: SN12C
[10] = tested on: MCF7
[11] = tested on: SK-MEL-5
[12] = tested on: U-251
[13] = tested on: SF-268
[14] = tested on: SF-539
[15] = tested on: UACC-62
[16] = tested on: HL-60
[17] = tested on: SK-MEL-28
[18] = tested on: RXF 393
[19] = tested on: SW-620
[20] = tested on: OVCAR-8
[21] = tested on: HCT-116
[22] = tested on: TK-10
[23] = tested on: SK-OV-3
[24] = tested on: OVCAR-4
[25] = tested on: CAKI-1
[26] = tested on: MDA-MB-231
[27] = tested on: HCT-15
[28] = tested on: EKVX
[29] = tested on: NCI-H226
[30] = tested on: SR
[31] = tested on: NCI-H522
[32] = tested on: MOLT-4
[33] = tested on: OVCAR-5
[34] = tested on: HOP-92
[35] = tested on: UACC-257
[36] = tested on: 786-0
[37] = tested on: T47D
[38] = tested on: ACHN
[39] = tested on: BT-549
[40] = tested on: KM12
[41] = tested on: MDA-N
[42] = tested on: NCI/ADR-RES
[43] = tested on: NCI-H460
[44] = tested on: COLO 205
[45] = tested on: K562
[46] = tested on: Hs-578T
[47] = tested on: SNB-75
[48] = tested on: CCRF-CEM
[49] = tested on: SF-295
[50] = tested on: A549
[51] = tested on: SK-MEL-2
[52] = tested on: RPMI-8226
[53] = tested on: UO-31
[54] = tested on: Malme-3M
[55] = tested on: A498
[56] = tested on: MDA-MB-435
[57] = tested on: HOP-62
[58] = tested on: SNB-19
[59] = tested on: LOX IMVI

In the case of N#Cc1c2c(c(Nc3ccc(F)cc3)n3c1nc1ccccc13)CCCC2, the GI50 [1] is reported as > 59.3 µM (inactive), the GI50 [2] is reported as > 48.5 µM (inactive) and the GI50 [3] is reported as 1.7 µM (inactive). For the same compound, the GI50 [4] was > 100 µM (inactive), the GI50 [5] was > 100 µM (inactive) and the GI50 [6] was > 100 µM (inactive). The GI50 [7] was > 100 µM (inactive), the GI50 [8] was 5.36 µM (inactive) and the GI50 [9] was > 100 µM (inactive). The GI50 [10] was > 32.5 µM (inactive), the GI50 [11] was 23.8 µM (inactive) and the GI50 [12] was 43.8 µM (inactive). The GI50 [13] was > 100 µM (inactive), the GI50 [14] was > 55.5 µM (inactive) and the GI50 [15] was > 100 µM (inactive). The GI50 [16] was 9.93 µM (inactive), the GI50 [17] was > 100 µM (inactive) and the GI50 [18] was 24 µM (inactive). The GI50 [19] was > 54 µM (inactive), the GI50 [20] was > 67.3 µM (inactive) and the GI50 [21] was 20 µM (inactive). The GI50 [22] was 18.9 µM (inactive), the GI50 [23] was 97.9 µM (inactive) and the GI50 [24] was > 87.3 µM (inactive). The GI50 [25] was > 52.2 µM (inactive), the GI50 [26] was > 100 µM (inactive) and the GI50 [27] was > 100 µM. The GI50 [28] was > 100 µM (inactive), the GI50 [29] was > 80 µM (inactive) and the GI50 [30] was 74.3 µM (inactive). For the same compound, the GI50 [31] was > 62.1 µM (inactive), the GI50 [32] was 6.32 µM (inactive) and the GI50 [33] was > 100 µM (inactive). For the same compound, the GI50 [34] was 26.9 µM (inactive), the GI50 [35] was 27.2 µM (inactive) and the GI50 [36] was 56.2 µM (inactive). For the same compound, the GI50 [37] was 6.64 µM (inactive), the GI50 [38] was 1.8 µM (inactive) and the GI50 [39] was > 91.6 µM (inactive). The GI50 [40] was 5.6 µM (inactive), the GI50 [41] was > 28.6 µM (inactive) and the GI50 [42] was > 100 µM (inactive). The GI50 [43] was 23.1 µM (inactive), the GI50 [44] was > 22.1 µM (inactive) and the GI50 [45] was 0.562 µM (active). The GI50 [46] was 36.9 µM (inactive), the GI50 [47] was 45.7 µM (inactive) and the GI50 [48] was > 22.5 µM (inactive). The GI50 [49] was 8.15 µM (inactive), the GI50 [50] was 97.9 µM (inactive) and the GI50 [51] was > 100 µM (inactive). For the same compound, the GI50 [52] was 10.5 µM (inactive), the GI50 [53] was > 38.9 µM (inactive) and the GI50 [54] was > 100 µM (inactive). The GI50 [55] was > 100 µM (inactive), the GI50 [56] was > 24.9 µM (inactive) and the GI50 [57] was 29.1 µM (inactive). For the same compound, the GI50 [58] was 26.7 µM (inactive).

For COc1ccc(N/N=C2\CCOc3ccc(C)cc3C2=O)cc1, the GI50 [1] was 17.7 µM (inactive), the GI50 [2] was 51.3 µM (inactive) and the GI50 [3] was 26.9 µM (inactive). The GI50 [4] was 7.8 µM (inactive), the GI50 [5] was 43.2 µM (inactive) and the GI50 [59] was 12.4 µM (inactive). The GI50 [7] was 13.6 µM (inactive), the GI50 [8] was 10.6 µM (inactive) and the GI50 [9] was 40.6 µM (inactive). For the same compound, the GI50 [10] was 14.4 µM (inactive), the GI50 [11] was 19.1 µM (inactive) and the GI50 [12] was 20.9 µM (inactive). The GI50 [13] was 35.5 µM (inactive), the GI50 [14] was 40.6 µM (inactive) and the GI50 [15] was 6.81 µM (inactive). The GI50 [16] was 11.9 µM (inactive), the GI50 [17] was 32.3 µM (inactive) and the GI50 [19] was 20 µM (inactive). For the same compound, the GI50 [20] was 31.8 µM (inactive), the GI50 [21] was 19.5 µM (inactive) and the GI50 [22] was 55.6 µM (inactive). The GI50 [23] was 18.2 µM (inactive), the GI50 [24] was 14.5 µM (inactive) and the GI50 [25] was 27.9 µM (inactive). The GI50 [26] was 14.4 µM (inactive), the GI50 [27] was 5.52 µM and the GI50 [28] was 21.3 µM (inactive). For the same compound, the GI50 [29] was 27.4 µM (inactive), the GI50 [30] was 15.6 µM (inactive) and the GI50 [31] was 24.7 µM (inactive). The GI50 [32] was 11.1 µM (inactive), the GI50 [33] was 91.4 µM (inactive) and the GI50 [34] was 18.1 µM (inactive). The GI50 [35] was 14.9 µM (inactive), the GI50 [36] was 17.4 µM (inactive) and the GI50 [37] was 2.14 µM (inactive). The GI50 [38] was 12.4 µM (inactive), the GI50 [39] was 24.1 µM (inactive) and the GI50 [40] was 5.08 µM (inactive). For the same compound, the GI50 [41] was 3.98 µM (inactive), the GI50 [42] was 9.4 µM (inactive) and the GI50 [43] was 13.7 µM (inactive). The GI50 [44] was 23.4 µM (inactive), the GI50 [45] was 4.43 µM (inactive) and the GI50 [46] was 25.1 µM (inactive). The GI50 [48] was 16.3 µM (inactive), the GI50 [49] was 10.3 µM (inactive) and the GI50 [50] was 21.3 µM (inactive). The GI50 [51] was 16.8 µM (inactive), the GI50 [52] was 25.5 µM (inactive) and the GI50 [53] was 24 µM (inactive). The GI50 [54] was 11.1 µM (inactive), the GI50 [55] was 59.8 µM (inactive) and the GI50 [56] was 3.18 µM (inactive). The GI50 [57] was 39.2 µM (inactive) and the GI50 [58] was 39.7 µM (inactive).
